Measurements published in US10207988B2, “Methods and compositions for treatment of cancer and autoimmune disease” (THE JACKSON LABORATORY, priority 2011, dated 2019).

Key:
[1] = test system: AID-negative (AID−) primary human CLL cells; assay: survival of primary human CLL cells cultured with DIDS (manual cytometry); assay type: cell-based; settings: 30 micromolar DIDS, 2, 4 or 8 days, versus untreated
Description: AID-expressing (AID+) or AID-negative (AID−) primary human CLL cells were cultured as described in Example 4. Cells were cultured in basic RPMI-1640 medium without supplementation (untreated; triangle in FIG. 17) or with 30 micromolar DIDS. Open circles represent the data for AID-negative cells treated with 30 micromolar DIDS and filled boxes represent the data for AID-positive cells treated with 30 micromolar DIDS. The cell survival was scored by manual cytometry for viable cells after 2, 4, or 8 days of exposure.
(§1) Eight AID+ and eight AID− CLL samples were cultured in basic RPMI-1640 medium plus 30 micromolar DIDS, and survival was scored by manual cytometry for viable cells after 2, 4, 6, or 8 days. […] A total of 117 lymphoma or leukemia patients were studies, of which 106 were CLL patients. In 47% AID expression was determined by RT-PCR.

[2] = test system: mouse B-lymphoid leukemia cell line CH12-F3; assay: total cell counts of CH12-F3 cells cultured with DIDS; assay type: cell-based
Description: The mouse B-lymphoid leukemia cell line CH12-F3 was cultured in RPMI-1640 medium supplemented with 2-10 mM L-glutamine (Gibco), 10% (vol/vol) heat-inactivated fetal bovine serum (Omega Scientific) and 5% (vol/vol) NCTC 109 media (Gibco) (complete RPMI; non-activated) or complete RPMI-1640 medium containing 1 μg/ml anti-CD40 antibody, 25 ng/ml IL-4 and 1 ng/ml transforming growth factor beta 1 (TGF-beta1) (activated). Cultures were supplemented with 0, 50, 100, or 150 micromolar DIDS, and total cell counts were determined by manual cytometry after 0, 1, 2, 3, 4, or 6 days in culture.

[3] = test system: cells isolated from the spleens of wild type or AID knockout (−/−) mice; assay: splenocyte viability, Guava EasyCyte Flow Cytometer Assay; assay type: cell-based, mouse; settings: 150 μM DIDS, stimulated with anti-CD40 antibodies and IL-4
Description: Cells isolated from the spleens of wild-type (WT) or AICDA knock-out (−/−) mice were stimulated with anti-CD40 antibodies and IL-4 on day 0 and day 2. DIDS was added on day 0 and day 2 at concentrations of 0 or 150 μM. WT cells stimulated with anti-CD40 antibodies plus IL-4 and treated with DIDS are shown as filled boxes, AICDA−/− cells stimulated with anti-CD40 antibodies plus IL-4 and treated with DIDS as circle; WT cells stimulated with anti-CD40 antibodies plus IL-4 are shown as open diamonds; and AICDA−/− cells stimulated with anti-CD40 plus IL-4 antibodies as open triangles. The total number of viable cells was determined every other day. Days are shown on the x-axis and the fraction of viable cells is shown on the y-axis.
Cells were isolated from the spleens of wild type or AID knockout (−/−) mice, cultured and stimulated with anti-CD40 antibodies and IL-4 on day 0 and day 2. DIDS was added on day 0 and day 2 at concentrations of 0 or 150 μM. The total number of viable cells was determined every other day using Guava EasyCyte Flow Cytometer Assay.

[4] = test system: primary mouse B-cells from AID knockout mice (AID−/−); assay: viable cell counts (Trypan blue) of primary B-cells cultured with DIDS; assay type: cell-based; settings: 0-150 μM DIDS
Description: (§2) Primary mouse B-cells were isolated from spleens of adult C57BL/6J mice (AID+/+) and from AID knockout mice (AID−/−) (see Example 1 and 2). 1×10^^6 primary B-cells were seeded into tissue culture plates, stimulated with 1 μg/ml anti-CD40 antibodies (anti-CD40; BD Pharmingen; Cat. No. 553721) and 25 ng/ml IL-4 or with anti-CD40 alone on day 0 and day 2. 0, 50 μM, 100 μM or 150 μM of DIDS was added at time 0 and 2 days after culture initiation, when culture volumes were adjusted to accommodate cell growth. The cells were cultured over 6 days. The number of viable cells were counted after staining with Trypan blue using a hemacytometer on days 1, 2, 3, 4 and 6. In FIG. 7 the number of viable primary B-cells from C57BL/6J mice (AID+/+) and AID-knockout mice (AID−/−) after treatment with DIDS is shown.

[5] = test system: primary mouse B-cells from C57BL/6J mice (AID+/+); assay: as above; assay type: cell-based
Description: as §2

[6] = test system: activated caspase 3 (AC3) in AID+ and AID− primary human CLL cells; assay: activated caspase 3 (AC3) staining in primary human CLL cells treated with DIDS; assay type: cell-based; settings: 30 μM DIDS, 3 days in culture
Text: Primary human CLL patient derived cells were obtained from peripheral bleeds collected at the time of routine clinical monitoring. Primary peripheral blood samples were collected via routine venipuncture into BD Vacutainer CPT Cell Separation Tubes. Samples were centrifuged to separate red blood cells (RBC) and then inverted to resuspend the mononuclear cells in their own plasma. Samples were stored overnight at the site of collection at room temperature then shipped via courier to the site of analysis. Each sample was tested for AID expression status by reverse transcription PCR (RT-PCR) to detect presence of the human AID mRNA (see Example 11). Samples were then divided into AID+ (those showing detectable levels of AID mRNA) and AID− (those showing no detectable AID mRNA above background) groups. Multiple independent cultures from different AID+ and AID− samples were initiated in standard RPMI-1640 medium containing 10% FBS plus either 0 or 30 μM DIDS. After 3 days in culture, cells from were fixed with paraformaldehyde, mounted on microscope coverslips, permeabilized by washing with weak detergent, and processed for immunofluorescent detection of the apoptosis marker activated caspase 3 (AC3) (primary antibody: cat. No. ab13847, Abcam; 1:100 dilution). Nuclear DNA was counterstained with 4′,6-diamidino-2-phenylindole (DAPI). […]

[7] = test system: AID-expressing (AID+) primary human CLL cells; assay: survival of primary human CLL cells cultured with DIDS (manual cytometry); assay type: cell-based
Description: AID-expressing (AID+) or AID-negative (AID−) primary human CLL cells were cultured as described in Example 4. […] […] The cell survival was scored by manual cytometry for viable cells after 2, 4, or 8 days of exposure.
as §1

O=S(=O)([O-])c1cc(N=C=S)ccc1/C=C/c1ccc(N=C=S)cc1S(=O)(=O)[O-].[Na+].[Na+] [DIDS, 4,4′diisothiocyanostilbene-2,2′-disulfonic acid]
cell survival (viable cells) [1]: indistinguishable
total cell number ([2]; activated cells (anti-CD40, IL-4, TGF-beta1), 150 micromolar DIDS): strong decrease of total cell number
total cell number ([2]; non-activated cells, 0-150 micromolar DIDS): no difference in cell viability or cell proliferation
total number of viable cells [3]: lower viability
number of viable cells [4]: no significant change in cell viability
number of viable cells ([5]; 100 μM DIDS, stimulated with anti-CD40 + IL-4): decrease of B-cell viability
number of viable cells ([5]; 150 μM DIDS, stimulated with anti-CD40 + IL-4, days 1-6): greatly reduces the cell viability from day 3 on
number of viable cells ([5]; not stimulated with anti-CD40+IL-4): does not influence the cell viability
fraction of cells showing positive staining for AC3 [6]: higher fraction of AC3-positive cells
cell viability ([7]; 10 μM DIDS): significant effects on cell viability
cell survival (viable cells) ([7]; 30 micromolar DIDS, 2, 4 or 8 days): reduced cell viability
cell viability, AID-positive versus AID-negative ([7]; 30 micromolar DIDS, eight AID+ and eight AID− CLL samples, 2, 4, 6 or 8 days): more strongly reduces cell viability in AID-positive than in AID-negative primary human CLL cells
